In ChEMBL document CHEMBL1201862, “PubChem BioAssay data set” (2004):
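All cell lines were grown in 96-well plates and treated with compound for 48 hours. GI50 is the concentration that inhibits growth by half.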 Calls of active or inactive are those of the source. Cut-off read from the data, not from the text of the source: active = GI50 up to about 1.1 µM and inactive = higher.

What was measured:
Experiment in all cases: NCI anticancer screen, dose series, 48 h
RPMI-8226 = test system: RPMI-8226
EKVX = test system: EKVX
HCC 2998 = test system: HCC 2998
A498 = test system: A498
DU-145 = test system: DU-145
HCT-15 = test system: HCT-15
SR = test system: SR
SK-OV-3 = test system: SK-OV-3
NCI-H522 = test system: NCI-H522
SK-MEL-2 = test system: SK-MEL-2
UACC-62 = test system: UACC-62
SNB-75 = test system: SNB-75
OVCAR-3 = test system: OVCAR-3
IGROV-1 = test system: IGROV-1
OVCAR-5 = test system: OVCAR-5
CAKI-1 = test system: CAKI-1
NCI-H226 = test system: NCI-H226
SK-MEL-28 = test system: SK-MEL-28
NCI-H460 = test system: NCI-H460
M14 = test system: M14

| SMILES | GI50 (RPMI-8226) | GI50 (EKVX) | GI50 (HCC 2998) | GI50 (A498) | GI50 (DU-145) | GI50 (HCT-15) [µM] | GI50 (SR) | GI50 (SK-OV-3) | GI50 (NCI-H522) | GI50 (SK-MEL-2) | GI50 (UACC-62) | GI50 (SNB-75) | GI50 (OVCAR-3) | GI50 (IGROV-1) | GI50 (OVCAR-5) | GI50 (CAKI-1) | GI50 (NCI-H226) | GI50 (SK-MEL-28) | GI50 (NCI-H460) | GI50 (M14) |
| --- | --- | --- | --- | --- | --- | --- | --- | --- | --- | --- | --- | --- | --- | --- | --- | --- | --- | --- | --- | --- |
| Nc1nc(N)c2c3c(cnc2n1)CC(c1ccccc1)CC3 (centres undefined) | > 100 µM (inactive) | 11.2 µM (inactive) | 34 µM (inactive) | 24.8 µM (inactive) | 25.4 µM (inactive) | 4.04 | 10.6 µM (inactive) | 21.5 µM (inactive) | 14.4 µM (inactive) | 32.3 µM (inactive) | 1.11 µM (active) | 16.4 µM (inactive) | 31 µM (inactive) | 0.728 µM (active) | 14.3 µM (inactive) | 28.1 µM (inactive) | 93.1 µM (inactive) | 35.6 µM (inactive) | 3.66 µM (inactive) | 3.24 µM (inactive) |
| O=C1C=Cc2c(I)sc(I)c21 | – | 26.1 µM (inactive) | 18.4 µM (inactive) | 48.5 µM (inactive) | 30 µM (inactive) | 17.3 | 4 µM (inactive) | 89.7 µM (inactive) | 1.99 µM (inactive) | 20.1 µM (inactive) | 28.8 µM (inactive) | 30.1 µM (inactive) | 19.3 µM (inactive) | 15.9 µM (inactive) | 25.1 µM (inactive) | 18.7 µM (inactive) | 31.3 µM (inactive) | 19.8 µM (inactive) | > 100 µM (inactive) | 27 µM (inactive) |
| CCOC(=O)NC1CN2CCC1CC2 (centres undefined) | > 100 µM (inactive) | > 100 µM (inactive) | > 100 µM (inactive) | > 100 µM (inactive) | > 100 µM (inactive) | > 100 | > 100 µM (inactive) | > 100 µM (inactive) | > 100 µM (inactive) | > 100 µM (inactive) | > 100 µM (inactive) | > 100 µM (inactive) | > 100 µM (inactive) | > 100 µM (inactive) | > 100 µM (inactive) | > 100 µM (inactive) | > 100 µM (inactive) | > 100 µM (inactive) | > 100 µM (inactive) | > 100 µM (inactive) |
| COC(=O)C1SC(N(C)c2ccccc2)=NC12c1ccccc1Nc1ccccc12 (centres undefined) | 3.08 µM (inactive) | 22.8 µM (inactive) | 20.5 µM (inactive) | 20.7 µM (inactive) | 25.7 µM (inactive) | 13.6 | 15.3 µM (inactive) | 39.8 µM (inactive) | 13.4 µM (inactive) | 15.5 µM (inactive) | 13.6 µM (inactive) | 25.8 µM (inactive) | 11 µM (inactive) | 14.2 µM (inactive) | 25.3 µM (inactive) | 23.8 µM (inactive) | 20.7 µM (inactive) | 19.2 µM (inactive) | 10.8 µM (inactive) | 19.5 µM (inactive) |
| O=C1C=CC(=O)c2c1ccc1c3ccccc3n(-c3ccccc3)c21 | 1.26 µM (inactive) | 8.77 µM (inactive) | 24.9 µM (inactive) | 17.9 µM (inactive) | 19.8 µM (inactive) | 3.48 | 0.271 µM (active) | 16.8 µM (inactive) | 1.64 µM (inactive) | 13.1 µM (inactive) | 13 µM (inactive) | 18.9 µM (inactive) | 8.83 µM (inactive) | 18.3 µM (inactive) | 17.1 µM (inactive) | 7.18 µM (inactive) | 18.3 µM (inactive) | 3.34 µM (inactive) | 17.9 µM (inactive) | 7.78 µM (inactive) |
| Cn1c(=O)c2c(nc3n(C)c(=O)c4ccccc4n23)n(C)c1=O | 20.7 µM (inactive) | > 100 µM (inactive) | > 100 µM (inactive) | 18.9 µM (inactive) | 21.9 µM (inactive) | 35.1 | 3.67 µM (inactive) | 37.8 µM (inactive) | 25.1 µM (inactive) | > 100 µM (inactive) | 28.9 µM (inactive) | 40.1 µM (inactive) | > 100 µM (inactive) | > 95.9 µM (inactive) | > 100 µM (inactive) | 24.3 µM (inactive) | 30 µM (inactive) | > 100 µM (inactive) | 6.93 µM (inactive) | > 96.6 µM (inactive) |
| CC/C=C\C=C/C(=O)N/C=C/CCC | 40.2 µM (inactive) | > 100 µM (inactive) | 23.3 µM (inactive) | 23.5 µM (inactive) | > 100 µM (inactive) | > 100 | 33.3 µM (inactive) | > 100 µM (inactive) | 17.5 µM (inactive) | > 100 µM (inactive) | 47.2 µM (inactive) | > 100 µM (inactive) | 58.3 µM (inactive) | > 100 µM (inactive) | > 100 µM (inactive) | > 100 µM (inactive) | > 100 µM (inactive) | > 100 µM (inactive) | > 100 µM (inactive) | > 100 µM (inactive) |
